Literature values, collected in paper PMC9370779, “Traditional Medicinal Uses, Phytochemistry, Biological Properties, and Health Applications of Vitex sp” (Plants, 2022).
“Also recorded” adds a separate entry of the source. Read-outs that look alike come from different tables or passages of the source.

Legend:
T. b rhodesiense = tested on: T. b rhodesiense; design: method as in PMID 25886869
cyclooxygenase-1 (COX-1) = tested on: cyclooxygenase-1 (COX-1); design: method as in PMID 11842334
[1] = tested on: African green monkey kidney (Vero) cell lines; design: method as in PMID 11842334
[2] = design: method as in doi:10.1016/j.phytol.2019.11.018
[3] = tested on: human colorectal carcinoma (HCT-116) cells; design: method as in PMID 26034885
[4] = design: method as in PMID 26034885
[5] = tested on: human fetal lung fibroblast (MRC15) cells; design: method as in PMID 26034885
[6] = tested on: LPS-induced NO production; design: method as in PMID 31302252
Plasmodium falciparum = tested on: Plasmodium falciparum; design: method as in PMID 32438132
[7] = design: method as in PMID 23150078; settings: 100 mg/kg dose
[8] = tested on: lymphocytic leukemia (P388) cells; design: method as in PMID 9332026
[9] = design: method as in PMID 27118321; settings: ABTS stated for 131
[10] = tested on: LPS-stimulated NO production

In the case of “2-(3′,4′-dimethoxyphenyl)-7-hydroxychromen-4-one [Compound 125]”, the trypanocidal activity (T. b rhodesiense) is given as “All compounds exhibited moderate trypanocidal activity against T. b rhodesiense”.

For `CO[C@H]1CC2C(C=O)=C(C)CC2O1` (stereo partly shown) [Compound 6, Tarumal], the “COX-1 inhibition (in words)” value (cyclooxygenase-1 (COX-1)) is given as “low inhibition” and the “cytotoxicity against Vero cell lines” value [1] is given as “no cytotoxicity”.

For `COc1cc(C(=O)OC2C[C@@H](O)[C@@H]3C=CO[C@@H](C[C@@H]4O[C@H](CO)[C@@H](O)[C@H](O)[C@H]4O)[C@H]23)ccc1O` (stereo partly shown) [Compound 7, pedunculariside], the “COX-1 inhibition (in words)” value (cyclooxygenase-1 (COX-1)) is listed as “low”, the “COX-1 inhibition (in words)” value (cyclooxygenase-1 (COX-1); listed as pedunculariside) is listed as “little inhibitory effect” and the “cytotoxicity against Vero cell lines” value [1] is listed as “no cytotoxicity”. For the same molecule, the “IC50 value, inhibition of COX-2” value (cyclooxygenase-2 (COX-2)) was 150 ± 210 µg/mL and the “inhibition of COX-2 (in words)” value (cyclooxygenase-2 (COX-2)) was “preferential inhibition of COX-2”.

For `COC1CC2C(O)C=C(COC(=O)c3ccc(O)cc3)C2C(OC)O1` (stereo not shown) [Compound 23, ishindacin A], the “percentage scavenging activities on stable free radicals” value [2] is listed as 27.14%.

In the case of `CO[C@H]1C[C@@H]2[C@@H](C(COC(=O)c3ccc(O)cc3)=C[C@H]2O)[C@H](OC)O1` [Compound 24, isonishindacin A], the “percentage scavenging activities on stable free radicals” value [2] is listed as 25.80%.

In the case of `C=C1CCC2C(C)(C)CCCC2(C)C1CC(O)C1=CC(=O)OC1O` (stereo not shown) [Compound 71, 12-epivitexolide A], the “cytotoxic activity against HCT-116 cells” value [3] is listed as “cytotoxic activities; also recorded: cytotoxic activity”, the antibacterial activity [4] is listed as “moderate antibacterial” and the “cytotoxic activity against MRC15 cells” value [5] is listed as “cytotoxic activities; also recorded: cytotoxic activity”.

In the case of `C=C1CC(O)C2C(C)(C)CCCC2(C)C1CC(O)C1=CC(=O)OC1O` (stereo not shown) [Compound 72, vitexolide B], the “cytotoxic activity against HCT-116 cells” value [3] is listed as “cytotoxic activities; also recorded: Exhibited cytotoxic activity on the HCT-116 cell lines”.

In the case of `C=C1CC(O)C2C(C)(C)CCCC2(C)C1CC(O)C1CC(=O)OC1O` (stereo not shown) [Compound 73, vitexolide C], the “cytotoxic activity against HCT-116 cells” value [3] is given as “cytotoxic activities; also recorded: Exhibited cytotoxic activity on the HCT-116 cell lines”.

For `C=C1CCC2C(C)(C)CCCC2(C)C1CC(O)C1=CC(=O)OC1` (stereo not shown) [Compound 74, vitexolide E], the “cytotoxic activity against HCT-116 cells” value [3] is listed as “cytotoxic activities; also recorded: cytotoxic activity”, the antibacterial activity [4] is listed as “moderate antibacterial” and the “cytotoxic activity against MRC15 cells” value [5] is listed as “cytotoxic activities; also recorded: cytotoxic activity”.

For `C=C1CC[C@H]2C(C)(C)CCC[C@]2(C)[C@H]1CC(O)/C(C)=C/C(=O)O` (stereo partly shown) [Compound 75, vitexolin A], the “cytotoxic activity against HCT-116 cells” value [3] is listed as “cytotoxic activities; also recorded: Exhibited cytotoxic activity on the HCT-116 cell lines”.

For `C=C(CC(=O)O)C(=O)C[C@H]1C(=C)CC[C@H]2C(C)(C)CCC[C@]12C` [Compound 76, vitexolin B], the “cytotoxic activity against HCT-116 cells” value [3] is given as “cytotoxic activities; also recorded: cytotoxic activity”, the antibacterial activity [4] is given as “moderate antibacterial” and the “cytotoxic activity against MRC15 cells” value [5] is given as “cytotoxic activities; also recorded: cytotoxic activity”.

In the case of `CC1=C(CCC2=CCOC2=O)[C@@]2(C)CC[C@H](O[C@@H]3O[C@H](CO)[C@@H](O)[C@H](O)[C@H]3O)C(C)(C)[C@@H]2CC1` [Compound 97, (3S,5R,10S)-3-[(β-D-glucopyranosyl)oxy]-labd-8,13-dien-16,15-olide], the “inhibition of LPS-induced NO production (in words)” value [6] is listed as “strong” and the IC50 ([6]; read-out: inhibition of NO production, IC50 value) is listed as 40.1 ± 1.3 µM.

For `CC(C)C12C=CC3(OO1)C(CCC1C(C)(C)CCCC13C)C2` (stereo not drawn) [Compound 100, abieta-11(12)-ene-9α,13α-endoperoxide], the “antimalarial activity (in words)” value (Plasmodium falciparum) is listed as “exhibited antimalarial activity”.

For `CC(C)[C@@]12C=C[C@@]3(OO1)[C@@H](CCC1C(C)(C)C[C@H](OC(=O)CC(=O)O)C[C@@]13C)C2` (stereo partly shown) [Compound 100a], the “antimalarial activity (in words)” value (Plasmodium falciparum) is listed as “exhibited antimalarial activity”.

In the case of `CC(C)C12C=CC3(OO1)C(CCC1C(C)(C)CCCC13C)C2` (stereo not drawn) [Compound 101, abieta-11(12)-ene-9β,13β-endoperoxide], the “times more active than compound 100” value (Plasmodium falciparum; Plasmodium falciparum) is listed as 54.

In the case of `CC(C)[C@]12C=C[C@]3(OO1)[C@@H](CCC1C(C)(C)C[C@H](OC(=O)CC(=O)O)C[C@@]13C)C2` (stereo partly shown) [Compound 101a], the “antimalarial activity (in words)” value (Plasmodium falciparum) is listed as “exhibited antimalarial activity”.

In the case of `C=CC1(C)CCC2C(C)(CCC3C(C)(C)CCCC32C)O1` (stereo not shown) [Compound 102, 9αH-manoyl oxide], the “antimalarial activity (in words)” value (Plasmodium falciparum) is listed as “exhibited antimalarial activity”.

For `CC1(C)CC[C@@H]([C@@](O)(CO)C2CC[C@@]3(O)C4=CC(=O)[C@@H]5C[C@@H](O)[C@@H](O)C[C@]5(C)C4CC[C@]23C)O1` (stereo partly shown) [Compound 111, 21-hydroxyshidasterone], the “anti-inflammatory activity in rat paw oedema development assay” value [7] is listed as “showed anti-inflammatory activity; also recorded: Exhibited anti-inflammatory activity in rat paw oedema development assay at 100 mg/kg dose”.

In the case of `CC1(C)CC[C@@H]([C@@H](CO)C2CC[C@@]3(O)C4=CC(=O)[C@@H]5C[C@@H](O)[C@@H](O)C[C@]5(C)C4CC[C@]23C)O1` (stereo partly drawn) [Compound 112, 11β-hydroxy-20-deoxyshidasterone], the “anti-inflammatory activity in rat paw oedema development assay” value [7] is given as “showed anti-inflammatory activity; also recorded: Exhibited anti-inflammatory activity in rat paw oedema development assay at 100 mg/kg dose”.

For `COC1C(COC(=O)C=Cc2ccc(O)c(O)c2)OC(c2c(O)cc3oc(-c4ccc(O)c(O)c4)cc(=O)c3c2O)C(O)C1O` (stereo not drawn) [Compound 115, luteolin 6-C-(4″-methyl-6″-O-trans-caffeoylglucoside)], the “cytotoxicity against P388 cells, IC50 values” (“cytotoxicity … IC50 values” below) [8] is given as 7.6 µg/mL.

In the case of `O=C(C=Cc1ccc(O)c(O)c1)OCC1OC(c2c(O)cc3oc(-c4ccc(O)c(O)c4)cc(=O)c3c2O)C(O)C(O)C1O` (stereo not drawn) [Compound 116, luteolin 6-C-(6″-O-trans-caffeoylglucoside)], the “cytotoxicity … IC50 values” [8] is given as 14 µg/mL.

For `O=C(C=Cc1ccc(O)c(O)c1)OC1C(c2c(O)cc3oc(-c4ccc(O)c(O)c4)cc(=O)c3c2O)OC(CO)C(O)C1O` (stereo not drawn) [Compound 117, luteolin 6-C-(2″-O-trans-caffeoylglucoside)], the “cytotoxicity … IC50 values” [8] is given as 56 µg/mL.

In the case of `COc1cc(-c2oc3cc(O)cc(O)c3c(=O)c2OC)ccc1O` [Compound 122, 2-(5′-methoxyphenyl)-4′,5,7-trihydroxy-3-methoxychromen-4-one], the trypanocidal activity (T. b rhodesiense) is given as “All compounds exhibited moderate trypanocidal activity against T. b rhodesiense”.

In the case of `COc1cc(O)c2c(=O)c(OC)c(-c3ccc(O)cc3)oc2c1` [Compound 123, 2-(4′-hydroxyphenyl)-5-hydroxy-3,7-dimethoxy-chromen-4-one], the trypanocidal activity (T. b rhodesiense) is given as “All compounds exhibited moderate trypanocidal activity against T. b rhodesiense”.

For `O=c1c(O)c(-c2ccc(O)cc2)oc2cc(O)cc(O)c12` [Compound 124, 2-(4-hydroxyphenyl)-3,5,7-trihydroxychromen-4-one], the trypanocidal activity (T. b rhodesiense) is given as “All compounds exhibited moderate trypanocidal activity against T. b rhodesiense”.

For `COc1cc(-c2c(O)c(C(=O)O)cc3cc(OC)c(O)cc23)ccc1O` [Compound 131, vitexnegheteroin G], the antioxidant activity [9] is given as “antioxidant activity; also recorded: Exhibited antioxidant activities using ABTS scavenging activities”.

In the case of `CO[C@H]1O[C@H](COC(=O)c2ccc(O)cc2)[C@@H](O)[C@H](O)[C@H]1O` [Compound 155, methyl (6-O-4-hydroxybenzoyl)-α-D-glucopyranoside], the “antioxidant activity via ABTS radical scavenging assay” value is listed as “Exhibited antioxidant and NO inhibitory activities” and the “inhibitory activity on LPS-stimulated NO production” value [10] is listed as “Exhibited antioxidant and NO inhibitory activities”.

For `O=C(OC[C@H]1O[C@@H](Oc2ccc(O)cc2)[C@H](O)[C@@H](O)[C@@H]1O)c1ccc(O)cc1` [Compound 156, breynioside A], the “antioxidant activity via ABTS radical scavenging assay” value is given as “Exhibited antioxidant and NO inhibitory activities” and the “inhibitory activity on LPS-stimulated NO production” value [10] is given as “Exhibited antioxidant and NO inhibitory activities”.

In the case of `O=C(OC[C@H]1O[C@@H](OC(=O)c2ccc(O)cc2)[C@H](O)[C@@H](O)[C@@H]1O)c1ccc(O)cc1` [Compound 157, 1,6-di-O-4-hydroxybenzoyl-β-D-glucopyranoside], the “antioxidant activity via ABTS radical scavenging assay” value is given as “Exhibited antioxidant and NO inhibitory activities” and the “inhibitory activity on LPS-stimulated NO production” value [10] is given as “Exhibited antioxidant and NO inhibitory activities”.

For `COc1cc(O[C@@H]2O[C@H](COC(=O)c3ccc(O)cc3)[C@@H](O)[C@H](O)[C@H]2O)ccc1O` [Compound 158, dunnianoside D], the “antioxidant activity via ABTS radical scavenging assay” value is given as “Exhibited antioxidant and NO inhibitory activities” and the “inhibitory activity on LPS-stimulated NO production” value [10] is given as “Exhibited antioxidant and NO inhibitory activities”.
